# Where two headings read alike, the source gives them in different places.
# Assays:
# [1] = test system: L-type channels (α1C+α2δ+β1b cDNA subunits); experiment: Selectivity patch clamp, L-type channels in HEK 293 (Example 7); assay type: cell-based; conditions: Tested at 0.1 Hz, 5 mM Ba2+
# [2] = target: T1, N-type calcium channels (α1B+α2δ+β1b cDNA subunits) (Rattus norvegicus, UniProt Q02294); experiment: Selectivity patch clamp, N-type channels in HEK 293 (Example 7); assay type: cell-based; conditions: Tested at 0.1 Hz, 5 mM Ba2+
# T1 construct: expressed in transfected cells
# T1 sequence (Q02294 whole entry): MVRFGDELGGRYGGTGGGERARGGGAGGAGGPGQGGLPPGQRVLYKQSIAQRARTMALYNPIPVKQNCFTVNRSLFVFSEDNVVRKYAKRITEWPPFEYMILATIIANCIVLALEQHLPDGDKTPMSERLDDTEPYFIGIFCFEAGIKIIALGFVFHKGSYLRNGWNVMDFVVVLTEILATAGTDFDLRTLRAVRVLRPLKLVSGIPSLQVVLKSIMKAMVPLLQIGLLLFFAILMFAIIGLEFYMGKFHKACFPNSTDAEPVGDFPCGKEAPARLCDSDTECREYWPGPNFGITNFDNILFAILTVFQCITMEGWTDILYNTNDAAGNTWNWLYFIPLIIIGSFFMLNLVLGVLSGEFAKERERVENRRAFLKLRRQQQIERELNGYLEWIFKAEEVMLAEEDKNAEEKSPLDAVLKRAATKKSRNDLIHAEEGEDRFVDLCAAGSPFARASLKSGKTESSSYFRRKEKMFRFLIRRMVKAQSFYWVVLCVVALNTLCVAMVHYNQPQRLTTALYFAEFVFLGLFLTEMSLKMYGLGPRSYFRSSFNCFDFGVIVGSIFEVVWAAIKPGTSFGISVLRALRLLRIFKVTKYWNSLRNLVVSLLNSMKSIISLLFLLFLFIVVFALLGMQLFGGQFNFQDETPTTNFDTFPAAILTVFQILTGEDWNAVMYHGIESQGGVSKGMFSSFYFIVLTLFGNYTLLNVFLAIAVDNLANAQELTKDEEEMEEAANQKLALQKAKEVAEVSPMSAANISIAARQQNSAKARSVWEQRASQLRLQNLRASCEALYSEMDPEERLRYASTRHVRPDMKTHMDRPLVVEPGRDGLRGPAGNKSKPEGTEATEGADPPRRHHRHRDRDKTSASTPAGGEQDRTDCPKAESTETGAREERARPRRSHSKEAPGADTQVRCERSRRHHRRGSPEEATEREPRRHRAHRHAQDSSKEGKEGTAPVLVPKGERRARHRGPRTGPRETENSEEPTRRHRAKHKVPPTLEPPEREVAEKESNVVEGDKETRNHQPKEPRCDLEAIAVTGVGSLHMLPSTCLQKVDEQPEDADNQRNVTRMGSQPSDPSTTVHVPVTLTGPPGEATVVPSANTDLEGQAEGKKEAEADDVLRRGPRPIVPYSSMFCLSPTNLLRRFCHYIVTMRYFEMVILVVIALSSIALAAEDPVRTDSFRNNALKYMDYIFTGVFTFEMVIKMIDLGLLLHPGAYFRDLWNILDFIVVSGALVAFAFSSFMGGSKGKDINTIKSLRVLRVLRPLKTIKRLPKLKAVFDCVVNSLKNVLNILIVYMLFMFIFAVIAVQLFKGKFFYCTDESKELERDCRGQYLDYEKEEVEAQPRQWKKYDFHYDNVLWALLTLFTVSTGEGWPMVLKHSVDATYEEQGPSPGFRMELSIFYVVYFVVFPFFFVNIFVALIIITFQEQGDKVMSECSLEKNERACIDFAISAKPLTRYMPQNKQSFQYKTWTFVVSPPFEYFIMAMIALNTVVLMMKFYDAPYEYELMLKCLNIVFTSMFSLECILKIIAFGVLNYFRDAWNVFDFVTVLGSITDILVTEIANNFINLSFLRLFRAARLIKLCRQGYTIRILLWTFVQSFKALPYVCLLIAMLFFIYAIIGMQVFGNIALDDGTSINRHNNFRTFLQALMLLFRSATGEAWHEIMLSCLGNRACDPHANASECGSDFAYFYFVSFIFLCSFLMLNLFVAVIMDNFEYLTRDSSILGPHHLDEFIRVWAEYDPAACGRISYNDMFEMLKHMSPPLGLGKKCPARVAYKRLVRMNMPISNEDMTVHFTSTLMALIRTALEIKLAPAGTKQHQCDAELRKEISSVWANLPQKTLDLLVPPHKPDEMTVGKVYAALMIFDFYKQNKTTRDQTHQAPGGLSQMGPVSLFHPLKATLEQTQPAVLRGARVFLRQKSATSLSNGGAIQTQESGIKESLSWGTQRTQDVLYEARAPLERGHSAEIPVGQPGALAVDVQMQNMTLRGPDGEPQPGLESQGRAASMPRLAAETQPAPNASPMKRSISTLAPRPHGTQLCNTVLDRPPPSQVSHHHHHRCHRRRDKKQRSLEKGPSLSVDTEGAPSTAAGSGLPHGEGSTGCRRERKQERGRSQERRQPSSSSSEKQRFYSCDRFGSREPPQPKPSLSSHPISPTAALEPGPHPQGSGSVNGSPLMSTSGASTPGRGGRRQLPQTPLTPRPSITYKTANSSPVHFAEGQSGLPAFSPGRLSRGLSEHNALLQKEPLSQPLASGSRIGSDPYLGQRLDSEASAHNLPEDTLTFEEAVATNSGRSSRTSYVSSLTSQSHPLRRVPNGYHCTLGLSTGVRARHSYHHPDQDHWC
# [3] = test system: P/Q-type channels (α1A+α2δ+β1b cDNA subunits); experiment: Selectivity patch clamp, P/Q-type channels in HEK 293 (Example 7); assay type: cell-based; conditions: Tested at 0.1 Hz, 5 mM Ba2+
# [4] = test system: rat formalin model; experiment: Formalin-induced pain model; assay type: in vivo; conditions: 30 mg/kg IP, 10 minutes prior to formalin, saline control=100%
# Procedure: The effects of intrathecally delivered compounds of the invention on the rat formalin model were measured. The compounds were reconstituted to stock solutions of approximately 10 mg/ml in propylene glycol. Eight Holtsman male rats of 275-375 g size were randomly selected per test compound.
# The following study groups were used, with test compounds, vehicle control (propylene glycol) and saline delivered intraperitoneally (IP):
# Prior to initiation of drug delivery baseline behavioral and testing data were taken.
# On the morning of testing, a small metal band (0.5 g) was loosely placed around the right hind paw. The rat was placed in a cylindrical Plexiglas chamber for adaptation a minimum of 30 minutes. Test compound or vehicle control was administered 10 minutes prior to formalin injection (50 μl of 5% formalin) into the dorsal surface of the right hindpaw of the rat. The animal was then placed into the chamber of the automated formalin apparatus where movement of the formalin injected paw was monitored and the number of paw flinches tallied by minute over the next 60 minutes. (See Malmberg, A. M., and Yaksh, T. L., Anesthesiology (1993) 79:270-281.)
# Results are presented as Maximum Possible Effect±SEM, where saline control=100%.
# [5] = target: T2, rat α1B+α2b+β1b channels (N-type channels) (Rattus norvegicus, UniProt Q02294); experiment: Block of α1B N-type channels, whole cell patch recordings (Example 6); assay type: cell-based; conditions: HEK 293, 5 mM barium as charge carrier
# T2 construct: expressed in transfected cells
# T2 sequence (Q02294 whole entry): as above
# Procedure: Antagonist activity was measured using whole cell patch recordings on human embryonic kidney cells either stably or transiently expressing rat α1B+α2b+β1b channels (N-type channels) with 5 mM barium as a charge carrier.
# For transient expression, host cells, such as human embryonic kidney cells, HEK 293 (ATCC# CRL 1573) were grown in standard DMEM medium supplemented with 2 mM glutamine and 10% fetal bovine serum. HEK 293 cells were transfected by a standard calcium-phosphate-DNA coprecipitation method using the rat α1B+β1b+α2δ N-type calcium channel subunits in a vertebrate expression vector (for example, see Current Protocols in Molecular Biology).
# After an incubation period of from 24 to 72 hrs the culture medium was removed and replaced with external recording solution (see below). Whole cell patch clamp experiments were performed using an Axopatch 200B amplifier (Axon Instruments, Burlingame, Calif.) linked to an IBM compatible personal computer equipped with pCLAMP software. Borosilicate glass patch pipettes (Sutter Instrument Co., Novato, Calif.) were polished (Microforge, Narishige, Japan) to a resistance of about 4 MΩ when filled with cesium methanesulfonate internal solution (composition in MM: 109 CsCH3SO4, 4 MgCl2, 9 EGTA, 9 HEPES, pH 7.2). Cells were bathed in 5 mM Ba^++ (in mM: 5 BaCl2, 1 MgCl2, 10 HEPES, 40 tetraethylammonium chloride, 10 glucose, 87.5 CsCl pH 7.2). […] Drugs were perfused directly into the vicinity of the cells using a microperfusion system.
# Normalized dose-response curves were fit (Sigmaplot 4.0, SPSS Inc., Chicago, Ill.) by the Hill equation to determine IC50 values. Steady-state inactivation curves were plotted as the normalized test pulse amplitude following 5 s inactivating prepulses at +10 mV increments. Inactivation curves were fit (Sigmaplot 4.0) with the Boltzman equation, Ipeak (normalized)=1/(1+exp((V-Vh)z/25.6)), where V and Vh are the conditioning and half inactivation potentials, respectively, and z is the slope factor.
# Using the procedure set forth above, various compounds of the invention were tested for their ability to block N-type calcium channels.
# [6] = target: T3, human α1G subunits (T-type channels) (Homo sapiens, UniProt O43497); experiment: Block of α1G T-type channels, patch clamp in HEK cell lines (Example 8); assay type: cell-based
# T3 construct: expressed in transfected cells
# T3 sequence (O43497 whole entry): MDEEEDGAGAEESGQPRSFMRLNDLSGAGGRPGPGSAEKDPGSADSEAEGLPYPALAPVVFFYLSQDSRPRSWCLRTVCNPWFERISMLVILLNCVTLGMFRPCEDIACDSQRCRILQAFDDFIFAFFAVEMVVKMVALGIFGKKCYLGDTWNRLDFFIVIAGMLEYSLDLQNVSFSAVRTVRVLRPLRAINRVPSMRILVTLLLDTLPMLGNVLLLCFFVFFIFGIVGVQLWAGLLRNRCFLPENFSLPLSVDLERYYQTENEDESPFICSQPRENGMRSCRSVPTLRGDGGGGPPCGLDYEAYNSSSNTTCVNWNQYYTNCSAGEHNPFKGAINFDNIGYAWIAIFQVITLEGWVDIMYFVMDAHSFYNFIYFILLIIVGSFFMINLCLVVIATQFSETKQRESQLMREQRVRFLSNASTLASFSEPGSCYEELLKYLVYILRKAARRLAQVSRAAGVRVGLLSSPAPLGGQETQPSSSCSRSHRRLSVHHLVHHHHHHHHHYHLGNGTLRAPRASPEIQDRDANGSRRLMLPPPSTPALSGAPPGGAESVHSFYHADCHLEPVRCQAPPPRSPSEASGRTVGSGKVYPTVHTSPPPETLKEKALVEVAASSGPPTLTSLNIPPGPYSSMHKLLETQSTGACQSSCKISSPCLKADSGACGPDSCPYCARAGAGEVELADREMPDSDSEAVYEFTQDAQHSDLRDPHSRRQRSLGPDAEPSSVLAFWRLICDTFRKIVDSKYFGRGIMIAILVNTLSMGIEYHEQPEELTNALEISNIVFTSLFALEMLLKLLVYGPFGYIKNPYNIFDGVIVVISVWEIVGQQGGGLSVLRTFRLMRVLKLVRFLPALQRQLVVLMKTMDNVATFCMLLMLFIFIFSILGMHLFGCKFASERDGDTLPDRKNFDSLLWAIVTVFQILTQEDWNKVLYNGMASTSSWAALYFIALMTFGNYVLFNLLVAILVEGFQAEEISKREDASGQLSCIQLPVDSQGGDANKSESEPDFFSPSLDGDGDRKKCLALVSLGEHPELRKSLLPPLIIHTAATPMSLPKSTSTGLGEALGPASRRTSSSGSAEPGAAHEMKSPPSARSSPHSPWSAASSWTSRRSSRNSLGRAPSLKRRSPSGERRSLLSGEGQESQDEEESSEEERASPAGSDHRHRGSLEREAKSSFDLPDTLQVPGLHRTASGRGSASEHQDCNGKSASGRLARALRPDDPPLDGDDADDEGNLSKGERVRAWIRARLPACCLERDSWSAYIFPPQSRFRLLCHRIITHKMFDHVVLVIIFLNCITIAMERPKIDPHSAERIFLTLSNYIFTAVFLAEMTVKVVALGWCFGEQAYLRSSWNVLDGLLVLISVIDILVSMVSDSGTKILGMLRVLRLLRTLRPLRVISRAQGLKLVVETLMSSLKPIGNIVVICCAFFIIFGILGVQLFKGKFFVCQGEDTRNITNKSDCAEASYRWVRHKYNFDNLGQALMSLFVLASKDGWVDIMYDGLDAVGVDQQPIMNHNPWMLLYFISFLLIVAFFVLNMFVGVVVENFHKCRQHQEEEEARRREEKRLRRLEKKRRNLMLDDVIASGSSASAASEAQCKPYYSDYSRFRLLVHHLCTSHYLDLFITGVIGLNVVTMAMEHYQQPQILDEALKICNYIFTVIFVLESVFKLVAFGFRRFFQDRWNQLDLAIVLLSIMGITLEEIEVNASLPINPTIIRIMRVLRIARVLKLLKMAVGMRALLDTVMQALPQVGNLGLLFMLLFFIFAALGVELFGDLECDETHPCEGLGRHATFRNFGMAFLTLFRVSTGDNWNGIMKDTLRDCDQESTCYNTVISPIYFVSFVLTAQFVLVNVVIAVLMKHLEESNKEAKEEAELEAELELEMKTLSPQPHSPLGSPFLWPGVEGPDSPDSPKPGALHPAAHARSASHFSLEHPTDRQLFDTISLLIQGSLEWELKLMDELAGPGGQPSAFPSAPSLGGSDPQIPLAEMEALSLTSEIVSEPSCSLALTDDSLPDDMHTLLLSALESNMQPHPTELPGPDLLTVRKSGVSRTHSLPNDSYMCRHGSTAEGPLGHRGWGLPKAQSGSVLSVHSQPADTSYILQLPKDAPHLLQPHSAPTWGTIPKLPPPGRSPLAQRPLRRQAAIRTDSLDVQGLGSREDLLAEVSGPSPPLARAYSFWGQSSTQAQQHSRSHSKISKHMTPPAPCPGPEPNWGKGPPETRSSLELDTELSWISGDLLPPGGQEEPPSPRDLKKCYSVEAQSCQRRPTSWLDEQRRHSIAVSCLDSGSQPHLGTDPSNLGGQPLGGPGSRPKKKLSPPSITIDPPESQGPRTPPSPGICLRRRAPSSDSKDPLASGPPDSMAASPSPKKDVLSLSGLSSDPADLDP
# Procedure: Standard patch-clamp techniques were employed to identify blockers of T-type currents. Briefly, previously described HEK cell lines stably expressing human α1G subunits were used for all the recordings (passage #: 4-20, 37° C., 5% CO2). To obtain T-type currents, plastic dishes containing semi-confluent cells were positioned on the stage of a ZEISS AXIOVERT S100 microscope after replacing the culture medium with external solution (see below). Whole-cell patches were obtained using pipettes (borosilicate glass with filament, O.D.: 1.5 mm, I.D.: 0.86 mm, 10 cm length), fabricated on a SUTTER P-97 puller with resistance values of ˜5 MΩ (see below for internal medium).
# In the non-inactivating protocol, the holding potential is set at −110 mV and with a pre-pulse at −100 mV for 1 second prior to the test pulse at −40 mV for 50 ms; in the inactivation protocol, the pre-pulse is at approximately −85 mV for 1 second, which inactivates about 15% of the T-type channels, as shown below. [formula]
# Test compounds were dissolved in external solution, 0.1-0.01% DMSO. After ˜10 min rest, they were applied by gravity close to the cell using a WPI microfil tubing. The “non-inactivated” pre-pulse was used to examine the resting block of a compound. The “inactivated” protocol was employed to study voltage-dependent block, but the initial data shown below were mainly obtained using the non-inactivated protocol only. IC50 values are shown for various compounds of the invention in Table 5.
# [7] = 0.067 Hz, read-out: Block of α1B N-type Channels IC50, 0.067 Hz
# [8] = 0.2 Hz, read-out: Block of α1B N-type Channels IC50, 0.2 Hz
# [9] = 80 mV (inactivation protocol), read-out: Block of α1G T-type Channels IC50, 80 mV
# [10] = 100 mV (non-inactivating protocol), read-out: Block of α1G T-type Channels IC50, 100 mV
IC50 [1] [µM],IC50 [2] [µM],IC50 [3] [µM],"IC50 [5, 7] [µM]","IC50 [5, 8] [µM]","IC50 [6, 9] [µM]","IC50 [6, 10] [µM]",Structure (SMILES),"Maximum Possible Effect ± SEM, Phase I [4] [%]","Maximum Possible Effect ± SEM, Phase II [4] [%]","Maximum Possible Effect ± SEM, Phase IIA [4] [%]"
6.6,0.113,1.63,0.2,0.105,,,O=C(CC(c1ccccc1)c1ccccc1)N1CCN(C(c2ccccc2)c2cccc(C(F)(F)F)c2)CC1 (centres unmarked) [Compound P2],57 ± 14,67 ± 10,61 ± 11
> 10,0.185,7.59,0.291,0.111,,,COc1ccc(C(c2ccc(C(F)(F)F)cc2)N2CCN(C(=O)CC(c3ccccc3)c3ccccc3)CC2)cc1 (centres unmarked) [Compound P3],89 ± 8,79 ± 4,85 ± 5
210,0.073,5,0.16,0.12,,,CCOC(=O)C1CN(C(c2ccccc2)c2ccccc2)CCN1C(=O)CC(c1ccccc1)c1ccccc1 (centres unmarked) [Compound P5],,,
37.1,0.36,3.4,0.23,0.14,,,Cl.O=C(O)C1CN(C(c2ccccc2)c2ccccc2)CCN1C(=O)CC(c1ccccc1)c1ccccc1 (centres unmarked) [Compound P8],78 ± 5,70 ± 15,57 ± 18
106,0.209,7.03,0.211,0.092,0.141,,O=C(CC(c1ccccc1)c1ccccc1)N1CCN(C(c2ccccc2)c2ccccc2Cl)CC1 (centres unmarked) [Compound P35],78 ± 8,67 ± 8,52 ± 11
19.6,0.19,0.97,0.1,0.074,,,O=C(CC(c1ccccc1)c1ccccc1)N1CCN(C(c2ccccc2)c2ccc(C(F)(F)F)cc2)CC1 (centres unmarked) [Compound P1],,,
8.5,0.206,0.93,0.114,0.044,0.055,,O=C(CC(c1ccccc1)c1ccccc1)N1CCN(C(c2ccccc2)c2cccc(Cl)c2)CC1 (centres unmarked) [Compound P36],62 ± 14,60 ± 10,42 ± 9
133,0.16,4.5,0.17,0.12,,0.081,O=C(CC(c1ccccc1)c1ccccc1)N1CCN(C(c2ccccc2)c2ccc(Cl)cc2)CC1 (centres unmarked) [Compound P6],,,
15.8,0.101,6.5,0.213,0.137,,,O=C(CC(c1ccccc1)c1ccccc1)N1CCN(C(c2ccccc2)c2ccc3c(c2)OCO3)CC1 (centres unmarked) [Compound P7],56 ± 12,67 ± 6,61 ± 11
13.4,0.217,3.59,0.324,0.237,,0.035,Cc1ccc(C(c2ccccc2)N2CCN(C(=O)CC(c3ccccc3)c3ccccc3)CC2)c(C)c1 (centres unmarked) [Compound P18],73 ± 17,84 ± 12,78 ± 13
> 10,0.251,> 10,0.213,0.114,,,CC(C)(C)c1cc(C(c2ccccc2)N2CCN(C(=O)CC(c3ccccc3)c3ccccc3)CC2)cc(C(C)(C)C)c1O (centres unmarked) [Compound P4],,,
4.37,0.197,1.86,0.237,0.138,0.464,1.44,O=C(CC(c1ccccc1)c1ccccc1)N1CCN([C@@H](c2ccccc2)c2ccc(Cl)cc2)CC1 [Compound P47],60 ± 7,55 ± 8,54 ± 9
126,0.385,26,,,0.004,0.033,O=C(CC(c1ccccc1)c1ccccc1)N1CCN(C(c2ccccc2)c2ccc(Cl)cc2Cl)CC1 (centres unmarked) [Compound P29],78 ± 17,70 ± 10,61 ± 9
